# Test results taken from patent publication US20230405003A1, “APPLICATION OF THYMIDINE DERIVATIVE IN PREPARATION OF DRUGS” (ONQUALITY PHARMACEUTICALS CHINA LTD., priority 2020, published 2023).
# Where two headings read alike, the source gives them in different places.
# What was measured:
# [1] = tested on: pain in capecitabine hand-foot syndrome rats; assay: Pain of hand-foot syndrome, mechanical sensitivity in rats (von Frey); assay type: in vivo, rat; details: capecitabine 4000 mg/kg hand-foot syndrome rats; thymidine derivative 3%
# Procedure: According to the method of Examples 91-115, after administration of a thymidine derivative (at a concentration of 3%) and co-administration of a thymidine derivative (at a concentration of 1%) with a uridine derivative (at a concentration of 3%) to rat hand-foot syndrome models constructed from 4000 mg/kg of capecitabine for a period of time, pain analysis was performed on the rats, and the pain assessment model was mechanical sensitivity in rats (von Frey). The experimental steps were as follows: first, the rats were allowed to adapt in the room for 1 hour, then the rats were placed in an observation box with a metal mesh floor, and the mice were allowed to stay in the box for 20 minutes to adapt to the experimental platform. Next, a von Frey device was used to detect paw pain by stimulating the surface of the rat's palm with specially designed cilia to detect the mechanical sensitivity of the animal at strength of 0.4 g, 0.8 g, 1.5 g, 2.5 g, 4 g, 8 g, 10 g and 20 g (IITC Life Science, Woodland Hills, 2390 series). […] The rat movement response was considered to be a vague response, in which case the stimulation experiment was repeated.
# [2] = tested on: hand-foot syndrome caused by capecitabine in SD rats; assay: Rat model of hand-foot syndrome caused by capecitabine, gel application; assay type: in vivo; details: capecitabine 4000 mg/kg once daily, 40 days; for Control Rate Forepaws / Control Rate Hindpaws / inhibition in vivo at 3 % / inhibition in vivo at 5 %: rats; for inhibition in vivo at 3 % / inhibition in vivo at 5 %: Rattus norvegicus, topical, 960 h; for inhibition in vivo at 5 %: gel 5 wt%
# Procedure: A rat animal model was established. 6-week aged female SD rats were administered with capecitabine by daily gavage. The degree of hand-foot syndrome in paws is similar, and there was no difference between the left and right paws. Similar to the human body, rats developed hand-foot syndrome after oral administration of capecitabine. The causes of the two are the same, and the disorder is also very similar. Therefore, rats are very good animal models for simulating the hand-foot syndrome caused by capecitabine.
# (§1) After SD rats were fed and adapted for one week (about 200 g), the rats were divided into groups, with 10 rats in each group. Then, the rats were subject to gavage administration. Capecitabine was dissolved in a 1:1 mixed solution of castor oil and ethanol and diluted for three times with PBS buffer. After gavage, the rats were fixed with a fixed cylinder, and a gel of thymidine derivative (or a compounded gel of thymidine derivative and uridine derivative) was applied to double hind paws (about 1 cm*3 cm) of the rats in group of administration (the types and concentrations are shown in Table 4), and a blank gel was applied to the group of blank (as a blank control). After approximately 4 hours of application, the rats were released after 4 hours, wiped with clean water to remove any residual drug at the application site, and allowed back to the cage. The thymidine derivative gel (or the compounded gel of thymidine derivative and uridine derivative) was administered with gavage every day. The gavage and application tests are repeated daily until the group of blank has developed obvious hand-foot syndrome.
# Table 4 lists the combinations of animal experiments of capecitabine and the thymidine derivative gel (or the compounded gel of thymidine derivative and uridine derivative) and the corresponding experimental results (wherein, the data in the column of control rate=the occurrence rate of hand-foot syndrome in group of blank—the occurrence rate of hand-foot syndrome in group of administration). […]
# HaCaT cells = assay: Relief of 5-FU proliferative toxicity to HaCaT cells (CCK-8 cell survival); assay type: cell-based; details: for Cell Survival Rate (increased percentage of cell survival compared with the Group of 5-FU): 5-Fu 20 μM, HaCaT cells
# In short: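 HaCaT keratinocytes (5000–10000/well) cultured 24 h, then exposed 48 h to 5-FU alone or with thymidine derivative, or thymidine plus uridine derivative mix, versus solvent-matched blanks. Survival by CCK-8; value is % increase in survival over 5-FU alone, t-test.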
# [3] = tested on: hand-foot syndrome caused by Doxorubicin in rats; assay: Rat model of hand-foot syndrome caused by doxorubicin, gel application; assay type: in vivo; details: Doxorubicin 7 mg/kg tail intravenous injection once every three days for 20 days, gel 3 wt%, 30 days
# Procedure: as §1
# (§2) The effects of thymidine derivative or a combination of thymidine derivative and uridine derivative on the chemotherapeutic drug-induced hand-foot syndrome in a rat model were tested according to the method in Examples 30-40. At the same time, paws of rats after treatment with the drug were taken and observed for their inflammation by hematoxylin-eosin staining (HE) and immunohistochemical staining (IHC).
# (§3) The test thymidine derivative or the combination of thymidine derivative and uridine derivative, as well as the final concentration of the test compounds were shown in Table 8. Table 8 lists the animal experiment combination of a chemotherapeutical drug and the thymidine derivative gel (or the compound gel of thymidine derivative and uridine derivative) and the corresponding experimental results (wherein, the data in the column of control rate=the occurrence rate of hand-foot syndrome in Group of blank—the occurrence rate of hand-foot syndrome in Group of administration).
# blood cells = assay: Blood cell count after 5-FU diarrhea experiment in mice; assay type: in vivo, mouse; details: orbital blood after 5-FU 70 mg/kg/d i.p. three days
# Excerpt: After completion of the experiments, the mice in the 5-FU control group and the experimental group were subject to blood collection at orbital. Blood cells were counted.
# [4] = tested on: hand-foot syndrome caused by Acelarin (NUC-1031) in rats; assay: Rat model of hand-foot syndrome caused by Acelarin (NUC-1031), gel application; assay type: in vivo; details: Acelarin (NUC-1031) 130 mg/kg intraperitoneal injection twice a week, gel 3 wt%, 30 days
# Procedure: as §1, §2, §3
# [5] = tested on: hand-foot syndrome caused by Cytarabine in rats; assay: Rat model of hand-foot syndrome caused by cytarabine, gel application; assay type: in vivo; details: Cytarabine 120 mg/kg twice per day, gel 3 wt%, 30 days
# Procedure: as §1, §2, §3
# [6] = tested on: human colon cancer cell HCT116 xenograft; assay: Effect of thymidine derivative gel on therapeutical effect of capecitabine, HCT116 xenograft nude mice; assay type: in vivo, mouse; details: oral capecitabine 1.5 mmol/kg, 14 days
# Procedure: A BALB/C nude mouse (human colon cancer cell HCT116 xenograft) model was established. After the model was stable, the model mice were divided into four groups (in which the average tumor size of each of the 4 groups was kept as consistent as possible). Except the blank group (containing 5 mice), there were 10 mice in each group, which were subject to gavage and application experiments.
# Capecitabine was dissolved in a mixed solution of castor oil:ethanol=1:1 (volume ratio). Prior to gavage, the mixture was diluted with PBS to the desired concentration (diluted for about 3 times with PBS solution). […]
# A: Group of blank: 5 mice with tumors, no gavage and no drug application; B: blank group: 10 mice with tumors, oral gavage with capecitabine (1.5 mmol/kg), application with blank gel on the back (once per day for 14 days); C: 0.5% T1 group: 10 mice with tumors, oral gavage of capecitabine, application with 0.5% T1 gel (administration method and frequency are the same as those in group B); D: 2% T1 gel group: 10 mice with tumors, oral gavage of capecitabine, application of 2% T1 gel (administration method and frequency are the same as those in group B). […] The tumor size was measured and recorded every 2 days. After 14 days of the experiment, the mice were dissected to take out the tumor, which was weighed and recorded.
# [7] = selected compound final concentration 12.5 μM
# [8] = selected compound final concentration 25 μM
# [9] = selected compound final concentration 50 μM
# [10] = gel 3 wt%, read-out: Control Rate Forepaws
# [11] = gel 3 wt%, read-out: Control Rate Hindpaws
compound,measurement,setting,value
CCC1(CC(C)=O)OCCc2c1[nH]c1c(CC(=O)OC[C@H]3O[C@@H](n4cc(C)c(=O)[nH]c4=O)C[C@@H]3O)cccc21 (stereo partly shown) [T26],pain in rats (von Frey mechanical sensitivity),[1],could significantly improve pain in rats
same,Control Rate Forepaws,[2]; gel 1 wt%,22.22%
same,Control Rate Hindpaws,[2]; gel 1 wt%,44.44%
same,Control Rate Forepaws,[2]; gel 3 wt%,57.14%
same,Control Rate Hindpaws,[2]; gel 3 wt%,71.43%
COc1ccc2cc([C@@H](C)C(=O)OC[C@H]3O[C@@H](n4cc(C)c(=O)[nH]c4=O)C[C@@H]3O)ccc2c1 [T41],pain in rats (von Frey mechanical sensitivity),[1],could significantly improve pain in rats
same,Cell Survival Rate (increased percentage of cell survival compared with the Group of 5-FU),HaCaT cells; [7],39%-46%
same,Cell Survival Rate (increased percentage of cell survival compared with the Group of 5-FU),HaCaT cells; [8],47%-55%
same,Cell Survival Rate (increased percentage of cell survival compared with the Group of 5-FU),HaCaT cells; [9],44%-51%
same,Control Rate Forepaws,[3],57.14%
same,Control Rate Hindpaws,[3],42.86%
same,inhibition in vivo at 3 %,[2]; [10],50%
same,inhibition in vivo at 3 %,[2]; [11],62.5%
same,inhibition in vivo at 5 %,[2]; read-out: Control Rate Forepaws,50%
same,inhibition in vivo at 5 %,[2]; read-out: Control Rate Hindpaws,75%
Cc1cn([C@H]2C[C@H](O)[C@@H](COC(=O)C(C)(C)C)O2)c(=O)[nH]c1=O [T4],pain in rats (von Frey mechanical sensitivity),[1],did not significantly improve pain in rats
same,activation at 1 µM,"HaCaT cells; Homo sapiens, HaCaT, increase vs Group of 5-FU, 5-FU 20 μM, compound 1 μM, 48 h, read-out: Cell Survival Rate",20 to 36%
same,activation at 10 µM,"HaCaT cells; Homo sapiens, HaCaT, increase vs Group of 5-FU, 5-FU 20 μM, compound 10 μM, 48 h, read-out: Cell Survival Rate",65 to 72%
same,activation at 100 µM,"HaCaT cells; Homo sapiens, HaCaT, increase vs Group of 5-FU, 5-FU 20 μM, compound 100 μM, 48 h, read-out: Cell Survival Rate",80 to 90%
same,activation at 500 µM,"HaCaT cells; Homo sapiens, HaCaT, increase vs Group of 5-FU, 5-FU 20 μM, compound 500 μM, 48 h, read-out: Cell Survival Rate",70 to 77%
same,activation at 1000 µM,"HaCaT cells; Homo sapiens, HaCaT, increase vs Group of 5-FU, 5-FU 20 μM, compound 1000 μM, 48 h, read-out: Cell Survival Rate",2 to 7%
same,inhibition in vivo at 3 %,[2]; [10],28.6%
same,inhibition in vivo at 3 %,[2]; [11],42.9%
same,Control Rate,"[2]; SD rats, gel 2 wt% on hind paws",32.86%
"O=c1[nH]cc(F)c(=O)[nH]1 [5-FU, fluorouracil (5-FU)]",blood cells,blood cells,can reduce all the blood cells that could be detected
CC(=O)Oc1ccccc1C(=O)OC[C@H]1O[C@@H](n2cc(C)c(=O)[nH]c2=O)C[C@@H]1O [T37],pain in rats (von Frey mechanical sensitivity),[1],could significantly improve pain in rats
same,Control Rate Forepaws,[4],42.86%
same,Control Rate Hindpaws,[4],71.43%
same,Cell Survival Rate (increased percentage of cell survival compared with the Group of 5-FU),HaCaT cells; selected compound final concentration 0.8 μM,36%-44%
same,Cell Survival Rate (increased percentage of cell survival compared with the Group of 5-FU),HaCaT cells; selected compound final concentration 1.6 μM,55%-62%
same,Cell Survival Rate (increased percentage of cell survival compared with the Group of 5-FU),HaCaT cells; selected compound final concentration 3.13 μM,61%-69%
same,Cell Survival Rate (increased percentage of cell survival compared with the Group of 5-FU),HaCaT cells; selected compound final concentration 6.25 μM,68%-76%
same,Cell Survival Rate (increased percentage of cell survival compared with the Group of 5-FU),HaCaT cells; [7],52%-60%
same,Cell Survival Rate (increased percentage of cell survival compared with the Group of 5-FU),HaCaT cells; [8],49%-57%
same,Cell Survival Rate (increased percentage of cell survival compared with the Group of 5-FU),HaCaT cells; [9],52%-59%
same,Control Rate Forepaws,[5],22.22%
same,Control Rate Hindpaws,[5],44.44%
same,inhibition in vivo at 3 %,[2]; [10],28.6%
same,inhibition in vivo at 3 %,[2]; [11],42.9%
"CCCCCOC(=O)Nc1nc(=O)n([C@@H]2O[C@H](C)[C@@H](O)[C@H]2O)cc1F [capecitabine, reference compound]",volume of tumor tissue versus group without capecitabine gavage,[6],significantly smaller than that in Group A
